Data taken from ChEMBL document CHEMBL2375284, “Novel hybrids of natural isochroman-4-one bearing N-substituted isopropanolamine as potential antihypertensive candidates” (Bioorg Med Chem, 2013).

Legend:
[1] = tested on: Rattus norvegicus; assay: Antihypertensive activity in rat spontaneous hypertensive model assessed as mean arterial blood pressure at 80 mg/kg, po measured at 8 hrs by tail-cuff method (reference value: 155.8 +/- 11.54 mmHg); assay type: functional, Artery
[2] = tested on: Rattus norvegicus; assay: Antihypertensive activity in rat spontaneous hypertensive model assessed as mean arterial blood pressure at 80 mg/kg, po measured at 6 hrs by tail-cuff method (reference value: 155.8 +/- 7.97 mmHg); assay type: functional, Artery
[3] = tested on: Rattus norvegicus; assay: Antihypertensive activity in rat spontaneous hypertensive model assessed as mean arterial blood pressure at 80 mg/kg, po measured at 4 hrs by tail-cuff method (reference value: 154.4 +/- 20.1 mmHg); assay type: functional, Artery
[4] = tested on: Rattus norvegicus; assay: Antihypertensive activity in rat spontaneous hypertensive model assessed as mean arterial blood pressure at 80 mg/kg, po measured at 2 hrs by tail-cuff method (reference value: 157.41 +/- 9.62 mmHg); assay type: functional, Artery
[5] = tested on: Rattus norvegicus; assay: Antihypertensive activity in rat spontaneous hypertensive model assessed as mean arterial blood pressure at 80 mg/kg, po measured at 1 hr by tail-cuff method (reference value: 158.9 +/- 13.65 mmHg); assay type: functional, Artery
[6] = tested on: Rattus norvegicus; assay: Antihypertensive activity in rat spontaneous hypertensive model assessed as mean arterial blood pressure at 80 mg/kg, po measured at 0.5 hrs by tail-cuff method (reference value: 156.2 +/- 7.21 mmHg); assay type: functional, Artery
[7] = tested on: Rattus norvegicus; assay: Antihypertensive activity in rat spontaneous hypertensive model assessed as diastolic arterial blood pressure at 80 mg/kg, po measured at 8 hrs by tail-cuff method (reference value: 135.3 +/- 8.21 mmHg); assay type: functional, Artery
[8] = tested on: Rattus norvegicus; assay: Antihypertensive activity in rat spontaneous hypertensive model assessed as diastolic arterial blood pressure at 80 mg/kg, po measured at 6 hrs by tail-cuff method (reference value: 141.2 +/- 7.34 mmHg); assay type: functional, Artery
[9] = tested on: Rattus norvegicus; assay: Antihypertensive activity in rat spontaneous hypertensive model assessed as diastolic arterial blood pressure at 80 mg/kg, po measured at 4 hrs by tail-cuff method (reference value: 141.4 +/- 7.11 mmHg); assay type: functional, Artery
[10] = tested on: Rattus norvegicus; assay: Antihypertensive activity in rat spontaneous hypertensive model assessed as diastolic arterial blood pressure at 80 mg/kg, po measured at 2 hrs by tail-cuff method (reference value: 142.9 +/- 18.07 mmHg); assay type: functional, Artery
[11] = tested on: Rattus norvegicus; assay: Antihypertensive activity in rat spontaneous hypertensive model assessed as diastolic arterial blood pressure at 80 mg/kg, po measured at 1 hr by tail-cuff method (reference value: 146.2 +/- 13.19 mmHg); assay type: functional, Artery
[12] = tested on: Rattus norvegicus; assay: Antihypertensive activity in rat spontaneous hypertensive model assessed as diastolic arterial blood pressure at 80 mg/kg, po measured at 0.5 hrs by tail-cuff method (reference value: 138.7 +/- 9.2 mmHg); assay type: functional, Artery
[13] = tested on: Rattus norvegicus; assay: Antihypertensive activity in rat spontaneous hypertensive model assessed as systolic arterial blood pressure at 80 mg/kg, po measured at 8 hrs by tail-cuff method (reference value: 174 +/- 12.1 mmHg); assay type: functional, Artery
[14] = tested on: Rattus norvegicus; assay: Antihypertensive activity in rat spontaneous hypertensive model assessed as systolic arterial blood pressure at 80 mg/kg, po measured at 6 hrs by tail-cuff method (reference value: 176.7 +/- 15.21 mmHg); assay type: functional, Artery
[15] = tested on: Rattus norvegicus; assay: Antihypertensive activity in rat spontaneous hypertensive model assessed as systolic arterial blood pressure at 80 mg/kg, po measured at 4 hrs by tail-cuff method (reference value: 172.9 +/- 10.21 mmHg); assay type: functional, Artery
[16] = tested on: Rattus norvegicus; assay: Antihypertensive activity in rat spontaneous hypertensive model assessed as systolic arterial blood pressure at 80 mg/kg, po measured at 2 hrs by tail-cuff method (reference value: 172.6 +/- 17.3 mmHg); assay type: functional, Artery
[17] = tested on: Rattus norvegicus; assay: Antihypertensive activity in rat spontaneous hypertensive model assessed as systolic arterial blood pressure at 80 mg/kg, po measured at 1 hr by tail-cuff method (reference value: 181.2 +/- 16.37 mmHg); assay type: functional, Artery
[18] = tested on: Rattus norvegicus; assay: Antihypertensive activity in rat spontaneous hypertensive model assessed as systolic arterial blood pressure at 80 mg/kg, po measured at 0.5 hrs by tail-cuff method (reference value: 178.5 +/- 10.13 mmHg); assay type: functional, Artery
[19] = tested on: Rattus norvegicus; assay: Toxicity in rat spontaneous hypertensive model assessed as heart rate at 80 mg/kg, po measured at 8 hrs by tail-cuff method (reference value: 397.2 +/- 24.87 bpm); assay type: organism-based; parameters: dose 80 mg/kg, route oral; settings: in vivo
[20] = tested on: Rattus norvegicus; assay: Toxicity in rat spontaneous hypertensive model assessed as heart rate at 80 mg/kg, po measured at 6 hrs by tail-cuff method (reference value: 405.1 +/- 24 bpm); assay type: organism-based; parameters: dose 80 mg/kg, route oral; settings: in vivo
[21] = tested on: Rattus norvegicus; assay: Toxicity in rat spontaneous hypertensive model assessed as heart rate at 80 mg/kg, po measured at 4 hrs by tail-cuff method (reference value: 403.1 +/- 15.92 bpm); assay type: organism-based; parameters: dose 80 mg/kg, route oral; settings: in vivo
[22] = tested on: Rattus norvegicus; assay: Toxicity in rat spontaneous hypertensive model assessed as heart rate at 80 mg/kg, po measured at 2 hrs by tail-cuff method (reference value: 399.5 +/- 19.68 bpm); assay type: organism-based; parameters: dose 80 mg/kg, route oral; settings: in vivo
[23] = tested on: Rattus norvegicus; assay: Toxicity in rat spontaneous hypertensive model assessed as heart rate at 80 mg/kg, po measured at 1 hr by tail-cuff method (reference value: 403.9 +/- 12.41 bpm); assay type: organism-based; parameters: dose 80 mg/kg, route oral; settings: in vivo
[24] = tested on: Rattus norvegicus; assay: Toxicity in rat spontaneous hypertensive model assessed as heart rate at 80 mg/kg, po measured at 0.5 hrs by tail-cuff method (reference value: 406.5 +/- 13.15 bpm); assay type: organism-based; parameters: dose 80 mg/kg, route oral; settings: in vivo

Row | SMILES | Activity [1] [mmHg] | Activity [2] [mmHg] | Activity [3] [mmHg] | Activity [4] [mmHg] | Activity [5] [mmHg] | Activity [6] [mmHg] | Activity [7] [mmHg] | Activity [8] [mmHg] | Activity [9] [mmHg] | Activity [10] [mmHg] | Activity [11] [mmHg] | Activity [12] [mmHg] | Activity [13] [mmHg] | Activity [14] [mmHg] | Activity [15] [mmHg] | Activity [16] [mmHg] | Activity [17] [mmHg] | Activity [18] [mmHg] | Activity [19] [bpm] | Activity [20] [bpm] | further results
1 | COc1cc2c(cc1OCC(O)CNC(C)C)C(=O)C(C)OC2 (stereo not drawn) | 124.2 | 121 | 118.1 | 122.1 | 128.8 | 134 | 107.7 | 99 | 99.8 | 101 | 113.9 | 113.7 | 162.6 | 164.2 | 166.6 | 165.7 | 164.5 | 174.1 | 367.7 | 355.2 | Activity [21]: 358.5 bpm; Activity [22]: 356.9 bpm; Activity [23]: 365.6 bpm; Activity [24]: 367 bpm
2 | COc1cc2c(cc1OCC(O)CNC(C)C)COC(C)C2=O (stereo not drawn) | 119 | 114 | 97.8 | 103.9 | 123.1 | 142.2 | 98 | 91.4 | 83 | 84.1 | 102.8 | 128.7 | 158.3 | 150.5 | 141 | 152.8 | 160.9 | 169.2 | 372.8 | 370 | Activity [21]: 361.4 bpm; Activity [22]: 365.1 bpm; Activity [23]: 378.3 bpm; Activity [24]: 385.4 bpm
